Source: the supplement of paper PMC10331698
± gives the standard deviation of the averaged measurements.

How the values were obtained:
Assay in all cases: level (log10 ratio to DMSO vehicle control); higher = higher biomarker level / cell amount than vehicle control
Conditions in all cases: in DMSO
[1] = compound: OCCCCC(F)(F)C(F)(F)C(F)(F)C(F)(F)F [4:4 Fluorotelomer alcohol]
Procedure: (§1)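 BioMAP Diversity Plus panel of 12 human primary cell co-culture systems (3C, 4H, LPS, SAg, BT, BF4T, BE3C, CASM3C, HDF3CGF, KF3CT, MyoF, Mphg). Compounds were added 1 h before stimulation and left for 24 h (MyoF 48 h; BT 72 h for soluble read-outs or 6 d for IgG). Biomarkers were read by ELISA, cytotoxicity by SRB, PBMC viability and proliferation by Alamar Blue. Each well value was divided by the mean of 8 DMSO control wells on the same plate and log10 transformed; duplicate blinded samples were tested at 4 concentrations.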

[2] = compound: O=C(O)C(F)(F)C(F)(F)C(F)(F)C(F)(F)C(F)(F)C(F)(F)C(F)(F)F [Ammonium perfluorooctanoate]
Procedure: as §1

[3] = compound: O=S(=O)(O)CCC(F)(F)C(F)(F)C(F)(F)C(F)(F)F [4:2 Fluorotelomer sulfonic acid]
Procedure: as §1

[4] = compound: O=C(Cl)C(F)(F)C(F)(F)C(F)(F)C(=O)Cl [Hexafluoroglutaryl chloride]
Procedure: as §1

[5] = compound: C=CC(=O)OCCC(F)(F)C(F)(F)C(F)(F)C(F)(F)C(F)(F)C(F)(F)C(F)(F)C(F)(F)F [8:2 Fluorotelomer acrylate]
Procedure: as §1

[6] = compound: O=P(O)(O)CCC(F)(F)C(F)(F)C(F)(F)C(F)(F)C(F)(F)C(F)(F)F [2-(Perfluorohexyl)ethylphosphonic acid]
Procedure: as §1

[7] = compound: O=C(CC(=O)C(F)(F)C(F)(F)C(F)(F)F)c1cccs1 [(Perfluorobutyryl)-2-thenoylmethane]
Procedure: as §1

| Test System | level (log10) ([1]; 6700 nM) | level (log10) ([1]; 20000 nM) | level (log10) ([1]; 60000 nM) | level (log10) ([2]; 6700 nM) | level (log10) ([2]; 20000 nM) | level (log10) ([2]; 60000 nM) | level (log10) ([3]; 6700 nM) | level (log10) ([3]; 20000 nM) | level (log10) ([3]; 60000 nM) | level (log10) ([4]; 6700 nM) | level (log10) ([4]; 20000 nM) | level (log10) ([4]; 60000 nM) | level (log10) ([5]; 6700 nM) | level (log10) ([5]; 20000 nM) | level (log10) ([5]; 60000 nM) | level (log10) ([6]; 6700 nM) | level (log10) ([6]; 20000 nM) | level (log10) ([6]; 60000 nM) | level (log10) ([7]; 6700 nM) | level (log10) ([7]; 20000 nM) |
| --- | --- | --- | --- | --- | --- | --- | --- | --- | --- | --- | --- | --- | --- | --- | --- | --- | --- | --- | --- | --- |
| BF4T:CCL2/MCP-1 | 0.0115 ± 0.044 | 0.007 ± 0.024 | 0.048 ± 0.099 | -0.0015 ± 0.013 | 0.0005 ± 0.036 | -0.016 ± 0.069 | 0.0145 ± 0.037 | 0.0075 ± 0.00071 | 0.0395 ± 0.022 | -0.0225 ± 0.00071 | -0.009 ± 0.0028 | -0.0185 ± 0.005 | -0.007 ± 0.038 | -0.0265 ± 0.015 | -0.026 ± 0.041 | 0.001 ± 0.0028 | 0.0015 ± 0.023 | -0.009 ± 0.0028 | -0.097 ± 0.018 | -0.306 ± 0.093 |
| LPS:M-CSF | 0.0085 ± 0.0078 | -0.001 ± 0.017 | 0.018 ± 0.0085 | 0.0145 ± 0.023 | 0.005 ± 0.031 | 0.007 ± 0.018 | -0.0265 ± 0.049 | 0.017 ± 0.0071 | 0.0025 ± 0.005 | -0.014 ± 0.05 | 0.001 ± 0.0085 | -0.0105 ± 0.005 | 0.001 ± 0.0085 | -0.006 ± 0.023 | -0.03 ± 0.0014 | -0.0175 ± 0.074 | 0.0055 ± 0.043 | 0.0255 ± 0.019 | 0.004 ± 0.085 | -0.046 ± 0.072 |
| SAg:PBMC Cytotoxicity | -0.0115 ± 0.015 | 0.014 ± 0.011 | 0.0195 ± 0.03 | 0.011 ± 0.035 | 0.049 ± 0.011 | 0.052 ± 0.04 | 0.0015 ± 0.013 | -0.007 ± 0.031 | 0.02 ± 0.0014 | 0.0075 ± 0.0078 | -0.022 ± 0.018 | 0.0185 ± 0.021 | -0.01 ± 0.013 | -0.006 ± 0.027 | -0.0005 ± 0.05 | -0.019 ± 0.023 | 0.012 ± 0.037 | -0.0165 ± 0.026 | -0.0295 ± 0.019 | -0.058 ± 0.03 |
| BF4T:MMP-3 | 0.0075 ± 0.021 | 0.017 ± 0.041 | 0.0295 ± 0.067 | 0.003 ± 0.0014 | 0.0165 ± 0.011 | 0.084 ± 0.02 | -0.031 ± 0.013 | -0.0235 ± 0.018 | 0.0295 ± 0.069 | -0.004 ± 0.011 | -0.0145 ± 0.0064 | 0.019 ± 0.0057 | -0.014 ± 0.0057 | -0.022 ± 0.0057 | 0.0085 ± 0.028 | -0.0205 ± 0.005 | -0.0125 ± 0.022 | -0.002 ± 0.023 | -0.0475 ± 0.026 | -0.0985 ± 0.032 |
| 3C:HLA-DR | -0.002 ± 0.042 | -0.0065 ± 0.026 | 0.006 ± 0.033 | -0.005 ± 0.0042 | 0 ± 0.0014 | 0.004 ± 0.016 | -0.019 ± 0.0028 | -0.0095 ± 0.0078 | -0.005 ± 0.028 | -0.008 ± 0.023 | -0.006 ± 0.013 | -0.0085 ± 0.0035 | 0.009 ± 0.0071 | 0.0055 ± 0.013 | 0.0175 ± 0.029 | -0.0055 ± 0.012 | -0.0135 ± 0.00071 | -0.0085 ± 0.044 | -0.093 ± 0.045 | -0.511 ± 0.026 |
| SAg:CD38 | -0.001 ± 0.028 | -0.0075 ± 0.018 | -0.0165 ± 0.023 | -0.011 ± 0.018 | -0.0055 ± 0.0064 | -0.051 ± 0.017 | -0.0135 ± 0.028 | -0.0415 ± 0.019 | -0.0245 ± 0.005 | -0.021 ± 0.025 | -0.031 ± 0.034 | -0.031 ± 0.055 | -0.001 ± 0.0085 | -0.003 ± 0.0071 | -0.004 ± 0.013 | 0.018 | 0.0025 ± 0.016 | -0.0055 ± 0.011 | -0.08 ± 0.055 | -0.223 ± 0.035 |
| BT:sIL-2 | -0.0015 ± 0.044 | -0.0135 ± 0.043 | -0.017 ± 0.092 | -0.046 ± 0.0057 | -0.0075 ± 0.074 | -0.006 ± 0.1 | -0.009 ± 0.059 | -0.044 ± 0.037 | 0.038 ± 0.02 | -0.0205 ± 0.07 | -0.001 ± 0.1 | 0.0415 ± 0.066 | 0.051 ± 0.0042 | -0.061 ± 0.17 | -0.036 ± 0.13 | 0.076 ± 0.013 | 0.023 ± 0.0071 | 0.0355 ± 0.11 | 0.0385 ± 0.067 | -0.001 ± 0.0014 |
| BT:B cell Proliferation | 0.0045 ± 0.018 | 0.005 ± 0.027 | -0.0015 ± 0.016 | 0.0065 ± 0.047 | 0.0165 ± 0.012 | 0.0515 ± 0.026 | 0.0295 ± 0.047 | 0.042 ± 0.034 | 0.0225 ± 0.0078 | 0.01 | -0.024 ± 0.0057 | -0.0095 ± 0.026 | 0.0155 ± 0.0021 | 0.0035 ± 0.00071 | -0.0005 ± 0.04 | 0.031 ± 0.0071 | 0.0135 ± 0.00071 | 0.051 ± 0.021 | -0.0105 ± 0.025 | -0.122 ± 0.036 |
| 4H:SRB | -0.003 ± 0.013 | 0 ± 0.018 | -0.001 ± 0.023 | -0.004 ± 0.011 | -0.0115 ± 0.005 | -0.0245 ± 0.0078 | -0.0035 ± 0.00071 | -0.0055 ± 0.005 | -0.0035 ± 0.0092 | 0 ± 0.0014 | 0.0055 ± 0.015 | 0 ± 0.014 | -0.0045 ± 0.019 | -0.0035 ± 0.005 | 0.01 | -0.005 ± 0.024 | -0.0065 ± 0.021 | -0.0005 ± 0.032 | -0.0255 ± 0.00071 | -0.136 ± 0.0021 |
| SAg:CXCL9/MIG | 0.0015 ± 0.0021 | -0.006 ± 0.0071 | 0.0045 ± 0.012 | -0.004 | 0.003 ± 0.013 | 0.009 ± 0.0085 | -0.0055 ± 0.013 | -0.0075 ± 0.0064 | 0.0035 ± 0.005 | 0 ± 0.016 | -0.0005 ± 0.011 | 0.013 ± 0.017 | -0.0065 ± 0.0035 | -0.017 ± 0.0014 | 0.009 ± 0.0099 | 0.0025 ± 0.0035 | -0.012 | 0.0005 ± 0.022 | -0.0075 ± 0.0035 | -0.0245 ± 0.011 |
| LPS:IL-1alpha | -0.01 ± 0.04 | -0.021 ± 0.028 | 0.014 ± 0.048 | 0.019 ± 0.0042 | 0.0045 ± 0.00071 | -0.034 ± 0.024 | -0.007 ± 0.035 | -0.001 ± 0.03 | 0.0035 ± 0.018 | -0.0955 ± 0.022 | -0.115 ± 0.015 | -0.057 ± 0.027 | 0.021 ± 0.013 | 0.0315 ± 0.052 | 0.0315 ± 0.0078 | 0.0055 ± 0.0092 | -0.026 ± 0.014 | -0.0195 ± 0.087 | -0.069 ± 0.034 | 0.109 ± 0.016 |
| BF4T:IL-1alpha | 0.0075 ± 0.013 | -0.0105 ± 0.0035 | -0.001 ± 0.017 | -0.02 ± 0.014 | -0.0235 ± 0.0035 | -0.0365 ± 0.015 | -0.0025 ± 0.015 | -0.013 ± 0.0028 | 0.0135 ± 0.029 | -0.014 ± 0.04 | -0.015 ± 0.018 | 0.0015 ± 0.0064 | -0.0115 ± 0.013 | -0.0185 ± 0.00071 | 0.015 ± 0.037 | 0.0005 ± 0.015 | -0.014 ± 0.013 | 0.002 ± 0.042 | -0.041 | -0.0615 ± 0.011 |
| 4H:CD87/uPAR | -0.0385 ± 0.029 | -0.044 ± 0.021 | -0.0195 ± 0.013 | 0.0015 ± 0.028 | 0.026 ± 0.0057 | 0.034 ± 0.023 | 0.0185 ± 0.0078 | 0.003 ± 0.0085 | -0.031 ± 0.024 | 0.0165 ± 0.0035 | 0.0115 ± 0.03 | 0.004 ± 0.018 | -0.045 ± 0.051 | -0.03 ± 0.011 | -0.064 ± 0.069 | -0.0345 ± 0.018 | -0.0165 ± 0.015 | -0.0495 ± 0.011 | -0.006 ± 0.024 | 0.033 ± 0.0071 |
| BF4T:CD54/ICAM-1 | -0.0055 ± 0.0035 | -0.0085 ± 0.011 | 0.0025 ± 0.0021 | -0.009 ± 0.02 | -0.016 ± 0.0014 | -0.0415 ± 0.023 | -0.0085 ± 0.011 | -0.0125 ± 0.0092 | 0.006 ± 0.038 | 0.0065 ± 0.0064 | -0.004 | 0.016 ± 0.017 | -0.0145 ± 0.013 | -0.026 ± 0.0042 | -0.0285 ± 0.026 | -0.022 ± 0.018 | -0.0245 ± 0.00071 | -0.0125 ± 0.0092 | 0.011 ± 0.017 | -0.0745 ± 0.00071 |
